Reference: patent US20080312287A1, “Compound and Methods For the Treatment of Cancer and Malaria” (University of Washington, priority 2005, published 2008)

Columns and labels:
P. falciparum K1 = test: P. falciparum ED50 determination, [3H]-hypoxanthine incorporation, strain K1; type: cell-based, Plasmodium falciparum; details: Plasmodium falciparum, K1, strain K1; concentration decreasing hypoxanthine incorporation into parasites twofold; read-out: ED50 K1
Description: (§1) Plasmodium strains. The P. falciparum strains used in this study were 3D7 (Netherlands, sensitive) provided by Dr. Pradipsinh Rathod from the University of Washington and K1 (Thailand, ChQ-R, Pyr-R) obtained from the MR4Unit of the American Type Culture Collection (ATCC, Manassas, Va.).
(§2) P. falciparum culture. Strains of P. falciparum were sustained in vitro based on experimental techniques as described by Trager and Jensen.^26 Cultures were maintained in RPMI-1640 (Sigma, St. Louis, […].) with 2 mM L-glutamine, 25 mM HEPES, 33 mM NaHCO3, 20 μg/ml gentamicin sulfate and 20% (v/v) heat-inactivated human plasma type A+ (R^P-20P). Type A+ erythrocytes were obtained from lab donors, washed three times with RPMI, re-suspended in 50% RPMI, and stored at 4° C. Parasites were grown in 10 mL of a 2% hematocrit/RP-20P (v/v) in 50-mL flasks under a 5% CO2, 5% O2, and 90% N2 atmosphere.
(§3) P. falciparum ED50 determination. One […]L of PFTI dissolved in DMSO was added to each well of a 96-well plate followed by the addition of 200 μL of P. falciparum culture at parasitemia and hematocrit of 0.5%. Plates were flushed with 5% CO2, 5% O2, and 90% N2 then incubated at 37° C. for 48 hr. [8-^3H]-hypoxanthine (0.3 μCi, 20 Ci/mmol, American Radiolabeled Chemicals) in 30 μL RP-20P was added to cultures and incubated for an additional 24 hours. Cells were harvested onto filter mats by a Multiharvester (Skatron, Sunnyvale, Calif.) and the radioactivity incorporated into the parasites was counted on a β-scintillation counter. The background level detected with uninfected erythrocytes was subtracted from the data. The ^3H-incorporation into infected RBCs with 1 μL DMSO vehicle alone represents 100% malaria growth. ED50 values were determined by linear regression analysis of the plots of ^3H-hypoxanthine incorporation versus concentration of compound.

P. falciparum 3D7 = test: P. falciparum ED50 determination, [3H]-hypoxanthine incorporation, strain 3D7; type: cell-based, Plasmodium falciparum; details: Plasmodium falciparum, 3D7, strain 3D7; concentration decreasing hypoxanthine incorporation into parasites twofold; read-out: ED50 3D7
Description: as §1, §2, §3

PfPFT = biological target: T1, PfPFT (Plasmodium falciparum, UniProt Q8I503+Q8IHP6); test: PfPFT inhibition, scintillation proximity assay with partially purified PfPFT; type: biochemical; details: for inhibition at 0.005 µM: read-out: % Inhibition of PfPFT at 5 nM, inhibitor at 5 nM; for inhibition at 0.05 µM: read-out: % Inhibition of PfPFT at 50 nM, inhibitor at 50 nM
T1 sequence (Q8I503 1-521): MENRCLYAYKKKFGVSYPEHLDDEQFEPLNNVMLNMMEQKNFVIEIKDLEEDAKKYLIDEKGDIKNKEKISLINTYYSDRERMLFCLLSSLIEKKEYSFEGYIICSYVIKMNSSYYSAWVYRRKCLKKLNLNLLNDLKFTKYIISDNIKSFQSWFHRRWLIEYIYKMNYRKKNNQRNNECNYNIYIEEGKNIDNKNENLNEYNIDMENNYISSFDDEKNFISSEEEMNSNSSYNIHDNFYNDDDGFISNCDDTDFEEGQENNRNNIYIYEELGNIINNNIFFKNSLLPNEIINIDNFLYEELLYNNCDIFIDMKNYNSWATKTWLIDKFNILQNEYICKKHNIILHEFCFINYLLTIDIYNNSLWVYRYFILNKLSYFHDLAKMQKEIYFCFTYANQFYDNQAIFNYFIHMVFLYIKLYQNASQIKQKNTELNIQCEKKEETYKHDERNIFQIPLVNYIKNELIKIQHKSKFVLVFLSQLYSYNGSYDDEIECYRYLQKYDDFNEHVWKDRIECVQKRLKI
T1 sequence (Q8IHP6 1-923): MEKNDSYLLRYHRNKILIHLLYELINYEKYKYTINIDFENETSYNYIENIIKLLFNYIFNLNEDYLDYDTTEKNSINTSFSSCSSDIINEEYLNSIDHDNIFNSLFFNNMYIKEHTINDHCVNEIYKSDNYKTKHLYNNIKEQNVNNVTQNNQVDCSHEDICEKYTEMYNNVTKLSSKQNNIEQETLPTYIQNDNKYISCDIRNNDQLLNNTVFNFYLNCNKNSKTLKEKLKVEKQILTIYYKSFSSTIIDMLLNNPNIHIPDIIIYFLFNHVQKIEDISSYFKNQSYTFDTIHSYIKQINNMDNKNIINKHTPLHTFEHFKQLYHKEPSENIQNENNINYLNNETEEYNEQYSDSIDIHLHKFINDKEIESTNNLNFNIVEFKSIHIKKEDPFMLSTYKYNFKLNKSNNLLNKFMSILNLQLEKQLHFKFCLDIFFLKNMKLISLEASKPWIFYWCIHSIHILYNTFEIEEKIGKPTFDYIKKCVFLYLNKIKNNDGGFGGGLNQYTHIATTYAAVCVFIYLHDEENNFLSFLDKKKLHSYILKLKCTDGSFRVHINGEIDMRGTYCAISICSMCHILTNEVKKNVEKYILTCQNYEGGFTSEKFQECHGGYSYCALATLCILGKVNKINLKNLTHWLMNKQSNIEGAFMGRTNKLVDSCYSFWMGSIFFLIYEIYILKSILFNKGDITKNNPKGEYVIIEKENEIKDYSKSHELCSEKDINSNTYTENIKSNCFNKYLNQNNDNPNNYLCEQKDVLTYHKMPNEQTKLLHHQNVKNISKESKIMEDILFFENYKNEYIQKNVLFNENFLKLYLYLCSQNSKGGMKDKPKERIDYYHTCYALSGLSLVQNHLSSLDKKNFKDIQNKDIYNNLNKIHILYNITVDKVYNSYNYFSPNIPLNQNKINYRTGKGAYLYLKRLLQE

SMILES	EC50 (P. falciparum K1) [nM]	EC50 (P. falciparum 3D7) [nM]	inhibition at 0.005 µM (PfPFT) [%]	inhibition at 0.05 µM (PfPFT) [%]	activity in words (PfPFT; SAR discussion of Table 4)	IC50 (PfPFT; concentration decreasing transferase activity twofold) [nM]
C=C(C)CN(CCN(Cc1cncn1C)c1ccc(C#N)cc1)S(=O)(=O)c1cn(C)cn1 [Compound 8m, 1-Methyl-1H-imidazole-4-sulfonic acid {2-[(4-cyano-phenyl)-(3-methyl-3H-imidazol-4-ylmethyl)-amino]-ethyl}-(2-methyl-allyl)-amide]	> 5000	> 5000	6	77	–	–
C=C(Br)CN(CCN(Cc1cncn1C)c1ccc(C#N)cc1)S(=O)(=O)c1cn(C)cn1 [Compound 8n, 1-Methyl-1H-imidazole-4-sulfonic acid (2-bromo-allyl)-{2-[(4-cyano-phenyl)-(3-methyl-3H-imidazol-4-ylmethyl)-amino]-ethyl}-amide]	> 5000	> 5000	25	80	–	–
Cn1cnc(S(=O)(=O)N(CCN(Cc2cncn2C)c2ccc(C#N)cc2)CCn2cccc2)c1 [Compound 8p, 1-Methyl-1H-imidazole-4-sulfonic acid {2-[(4-cyano-phenyl)-(3-methyl-3H-imidazol-4-ylmethyl)-amino]-ethyl}-(2-pyrrol-1-yl-ethyl)-amide]	> 5000	> 5000	11	56	–	–
Cn1cnc(S(=O)(=O)N(CCN(Cc2cncn2C)c2ccc(C#N)cc2)CC2CCOCC2)c1 [Compound 8r, 1-Methyl-1H-imidazole-4-sulfonic acid {2-[(4-cyano-phenyl)-(3-methyl-3H-imidazol-4-ylmethyl)-amino]-ethyl}-(tetrahydro-pyran-4-ylmethyl)-amide]	400	575	28	84	–	–
Cn1cnc(S(=O)(=O)N(CCN(Cc2cncn2C)c2ccc(C#N)cc2)CC2CCNCC2)c1 [Compound 8s, 1-Methyl-1H-imidazole-4-sulfonic acid {2-[(4-cyano-phenyl)-(3-methyl-3H-imidazol-4-ylmethyl)-amino]-ethyl}-piperidin-4-ylmethyl-amide]	> 5000	> 5000	5	5	inactive	–
CC(=O)N1CCC(CN(CCN(Cc2cncn2C)c2ccc(C#N)cc2)S(=O)(=O)c2cn(C)cn2)CC1 [Compound 8t, 1-Methyl-1H-imidazole-4-sulfonic acid (1-acetyl-piperidin-4-ylmethyl)-{2-[(4-cyano-phenyl)-(3-methyl-3H-imidazol-4-ylmethyl)-amino]-ethyl}-amide]	3500	5000	8	44	–	–
CC(C)C(=O)N1CCC(CN(CCN(Cc2cncn2C)c2ccc(C#N)cc2)S(=O)(=O)c2cn(C)cn2)CC1 [Compound 8u, 1-Methyl-1H-imidazole-4-sulfonic acid {2-[(4-cyano-phenyl)-(3-methyl-3H-imidazol-4-ylmethyl)-amino]-ethyl}-(1-isobutyryl-piperidin-4-ylmethyl)-amide]	180	230	57	92	–	–
Cn1cnc(S(=O)(=O)N(CCN(Cc2cncn2C)c2ccc(C#N)cc2)CC2CCN(c3ncccn3)CC2)c1 [Compound 8w, 1-Methyl-1H-imidazole-4-sulfonic acid {2-[(4-cyano-phenyl)-(3-methyl-3H-imidazol-4-ylmethyl)-amino]-ethyl}-(1-pyrimidin-2-yl-piperidin-4-ylmethyl)-amide]	85	130	74	96	–	1.5
